Results reported in patent US7989165B2, “Tape stripping methods for analysis of skin disease and pathological skin state” (DermTech International, priority 2004, dated 2011).
Where “and” joins values, the source holds several entries; their conditions need not be identical. Identical values can stand only once. Marks after values point to notes of the source that are not given here.

Assays:
[1] = system: GAPDH mRNA; assay: Semi-quantitative RT-PCR of GAPDH mRNA relative to β-actin in SLS-occluded skin (tape and biopsy); format: in vivo, human; details: 1% SLS 24 h occluded skin, mean ± SD per subject, last line average, sulfate
Description: Clinical protocols: The study protocols were reviewed and approved by an independent IRB (BioMed IRB, San Diego) and all subjects signed informed consent. Ten healthy women, ages 21-55 were enrolled in the study. Regions of unblemished, normal appearing skin on the mid back were chosen for the application of 2 occlusive patches in the form of bandages approximately 4 cm×6.5 cm. The bandages were made using a clear, non-porous plastic hypoallergenic adhesive tape. In the center of this tape was a Webril (non-woven cotton) patch measuring approximately 2 cm×4.5 cm. One Webril patch contained 0.6 ml of 1% aqueous sodium lauryl sulfate and the other contained 0.6 ml of sterile water as the vehicle control. […] The sites were scored by a trained technician using the scale provided below. […] In a second study, 3 subjects had 3 patches containing 1% SLS and 3 water patches applied to the mid back for 24 hours: Patches were removed, scored and tape stripped as above. […]
Quantitative RT-PCR: 10 μl of RNA was reverse transcribed (RT) into cDNA with the Sensiscript Reverse Transcriptase kit and random hexamers in a final volume of […] according to the manufacturer's directions. […]
Amplification and detection of specific mRNA: Specific mRNAs were converted to cDNA as described above. Specific cDNAs were semi-quantified using gene specific primer/probes (5′-nuclease assay) and fluorescence detection.

[2] = system: IL-1β mRNA; assay: Semi-quantitative RT-PCR of IL-1β mRNA relative to β-actin in SLS-occluded skin (tape and biopsy); format: in vivo, human
Description: Clinical protocols: The study protocols were reviewed and approved by an independent IRB (BioMed IRB, San Diego) and all subjects signed informed consent. […] The bandages were made using a clear, non-porous plastic hypoallergenic adhesive tape. […] The sites were scored by a trained technician using the scale provided below. […] Abbott Laboratories). […] An area of uninvolved skin was tape harvested and shave biopsied in an identical manner. […] The following grading scale was used: 0, no visible reaction; 1, slight, pink, patchy erythema; 2, mild confluent, pink erythema; 3, moderate erythema (definite redness) with edema; 4, strong erythema (very intense redness) with edema. […] Patches were removed, scored and tape stripped as above. In a third study, two individuals were tape stripped on uninvolved skin on the upper back at three adjacent sites as above. RNA harvested in these last two studies was used in the DNA microarray experiments described below. Isolation of RNA: […] Extraction was performed using the manufacturer's directions and included a Proteinase K digestion, sonication of tapes and “on-column” DNase I digestion. […] Extraction of biopsies was performed with the same kit according to the manufacturer's instructions. Quantitative RT-PCR: 10 μl of RNA was reverse transcribed (RT) into cDNA with the Sensiscript Reverse Transcriptase kit and random hexamers in a final volume of […] according to the manufacturer's directions. […] All RT-reactions were amplified using 2 replicates and were negative (data not shown). Amplification and detection of specific mRNA: Specific mRNAs were converted to cDNA as described above. […] Amplification and detection assays were performed using TaqMan Pre-Developed Assay Reagents (PDAR; […] GAPDH mRNA assays were done in singleplex format. Thermal cycling conditions were: prior to cycling, two minutes at 50° C., then ten minutes at 95° C.; then 40 cycles at 95° C. for 15 seconds and 60° C. for 60 seconds. […] Semi-quantitation of mRNA using the ΔΔCt method: In this Example the comparative or ΔΔCt method of calculating relative gene expression levels between two samples, was used. In the ΔΔCt method the levels of IL-1β, IL-8 and GAPDH mRNAs are assayed semi-quantitatively by normalization to β-actin mRNA to create a ratio of (mRNAx)/(β-actin) mRNA for each RNA sample. This ratio is then further normalized to a control sample (a process called “calibration”; (Applied Biosystems 2001)). When comparing the ratio of mRNAx to β-actin mRNA between two different samples, it is implicitly assumed that the level of β-actin mRNA to total RNA is constant between the two samples (i.e. it is an unchanging housekeeping gene). […] The Ct values are the experimentally determined number of PCR cycles required to achieve a threshold fluorescence (statistically significant increase in fluorescence over background) for mRNAx and β-actin mRNA (Gibson, Heid et al. 1996; Heid, Stevens et al. 1996). Calculation of fold-increase and data analysis: Key to the method used to measure mRNA is the fact that the quantity of specific mRNA directly correlates with the number of cycles needed to reach threshold fluorescence, thus the fewer the number of cycles (the lower the Ct), the more mRNA is initially present. As described above, experimental data is reported as the number of cycles (Ct) required to reach a threshold fluorescence. […] The significance of ΔCt values (Tables I and IV) was determined by applying a two-sided, paired t-test. […]

[3] = SLS-occluded skin vs uninvolved skin

SMILES: CCCCCCCCCCCCOS(=O)(=O)[O-].[Na+] [SLS, sodium lauryl sulfate]
- ΔCt,GAPDH (Ct,GAPDH − Ct,actin), Biopsy ([1]; shave biopsy RNA): 1.44 ± 0.11 and 1.68 ± 0.09 and 1.78 ± 0.10 and 2.33 ± 0.07 and 1.73 ± 0.09 and 1.54 ± 0.10 and 3.25 ± 0.08 and 1.05 ± 0.07 and 1.61 ± 0.11 and 1.95 ± 0.08
- ΔCt,GAPDH (Ct,GAPDH − Ct,actin), Tape ([1]; tape-harvested RNA): 3.02 ± 0.08 and 2.28 ± 0.10 and 3.15 ± 0.15 and 2.87 ± 0.10 and 2.68 ± 0.09 and 3 ± 0.11 and 2.85 ± 0.15 and 2.46 ± 0.08 and 2.78 ± 0.44 and 2.56 ± 0.11
- fold-change in IL-1β/β-actin mRNA ratio, Biopsy ([2]; SLS-occluded skin relative to uninvolved skin, biopsy samples, per subject, > = minimum estimate, sulfate): >15**^† fold and >3.3** fold and >8**^† fold and >34**^† fold and >11**^† fold and 56**^† fold and >53**^† fold and 2.2** fold and 1 fold and >28**^† fold
- fold-change in IL-1β/β-actin mRNA ratio, Tape ([2]; SLS-occluded skin relative to uninvolved skin, tape samples, per subject, > = minimum estimate, sulfate): 18**^† fold and >0.44 fold and >8.1**^† fold and >1.9** fold and >5** fold and >1.4 fold and >7.3**^† fold
- biopsy samples with significantly elevated IL-1β/β-actin mRNA ratio [2, 3]: 9 of 10
- tape-harvested samples with significant increases in IL-1β/β-actin mRNA [2, 3]: 5 of 10
- SLS-treated biopsy samples with significant increases in IL-1β/actin mRNA ratio calibrated to the water-treated site ([2]; of 10 biopsy samples): 7 samples
